Tests used:
P388 = experiment: Antitumor activity against Mus musculus (mouse) P388 cells xenografted in Mus musculus (mouse) assessed as increase in survival time relative to control; format: functional; parameters: concentration or dose not given beside the values
DNA = settings: Bos taurus
Description: Binding affinity to Bos taurus (calf) thymus DNA assessed as change in melting temperature at drug to DNA base pair ratio 0.25 M

Row | SMILES | Increase in survival time (P388) [%] | ΔTm (DNA) [°C]
1 | CN(C)CCNc1ccc2nnn3c4ccc(O)cc4c(=O)c1c23 | 102 | 13.1
2 | CCN(CC)CCNc1ccc2ncn3c4ccccc4c(=O)c1c23 | 55 | 7.2
3 | CN(C)CCNc1ccc2nnn3c4ccc(C(C)(C)C)cc4c(=O)c1c23 | 0 | 6.8
4 | CN(C)CCNc1ccc2ncn3c4ccc(O)cc4c(=O)c1c23 | 110 | 12.3
5 | CN(C)CCNc1ccc2ncn3c4ccccc4c(=O)c1c23 | 90 | 9.5
6 | CN(C)CCCCCNc1ccc2ncn3c4ccc(O)cc4c(=O)c1c23 | 85 | 13.1
7 | CCN(CC)CCNc1ccc2ncn3c4ccc(C(C)(C)C)cc4c(=O)c1c23 | 0 | 2.4
8 | CCNCCNc1ccc2nnn3c4ccc(O)cc4c(=O)c1c23 | 78 | 7.1
9 | CN(C)CCCNc1ccc2ncn3c4ccc(O)cc4c(=O)c1c23 | 120 | 3.5
10 | CN(C)CCCNc1ccc2nnn3c4ccc(O)cc4c(=O)c1c23 | 165 | 15.1
11 | Cc1ccc2c(c1)c(=O)c1c(NCCCN(C)C)ccc3nnn2c31 | 18 | 11.5
12 | CN(C)CCCNc1ccc2ncn3c4ccccc4c(=O)c1c23 | 25 | 11.5
13 | CN(C)CCNc1ccc2nnn3c4ccccc4c(=O)c1c23 | 77 | 9.1
14 | CCN(CC)CCNc1ccc2ncn3c4ccc(OC)cc4c(=O)c1c23 | 96 | 11.5
15 | CCN(CC)CCNc1ccc2ncn3c4cc(O)ccc4c(=O)c1c23 | 27 | 8.3
16 | CCN(CC)CCNc1ccc2nc(C)n3c4ccc(O)cc4c(=O)c1c23 | 185 | 15.3
17 | CCN(CC)CCCCCNc1ccc2ncn3c4ccc(C)cc4c(=O)c1c23 | 20 | 10.5
18 | CN(C)CCN(C)c1ccc2nnn3c4ccc(O)cc4c(=O)c1c23 | 10 | 8.1
19 | CCN(CC)CCNc1ccc2ncn3c4ccc(O)cc4c(=O)c1c23 [C-1311] | 93 | 13.7
20 | CN(C)CCCCCNc1ccc2ncn3c4ccccc4c(=O)c1c23 | 10 | 9.9

Source: ChEMBL document CHEMBL3045087, “Physicochemical interaction of antitumor acridinone derivatives with DNA in view of QSAR studies” (2011)
